Experimental data published in ChEMBL document CHEMBL1138719, “Tocopherol long chain fatty alcohols decrease the production of TNF-alpha and NO radicals by activated microglial cells” (Bioorg Med Chem Lett, 2004).
Calls of active or inactive are those of the source. The rule behind the calls is not given here.

What was measured:
Format in all cases: functional, cell-based
[1] = test system: MMGT12; assay: inhibition of LPS-induced TNF-alpha production in mouse MMGT12 cells at 1e-6 M; Major inhibition
[2] = test system: MMGT12; assay: inhibition of LPS-induced TNF-alpha production in mouse MMGT12 cells at 1e-5 M; Major inhibition
[3] = test system: MMGT12; assay: inhibition of LPS-induced nitrite accumulation in mouse MMGT12 cells at 1e-5 M concentration; Strong inhibition inhibition
[4] = test system: MMGT12; assay: inhibition of LPS-induced TNF-alpha production in mouse MMGT12 cells at 1e-5 M to 1e-7 M concentration; No effect
[5] = test system: MMGT12; assay: inhibition of LPS-induced TNF-alpha production in mouse MMGT12 cells at 1e-5 M concentration; Slight inhibition
[6] = test system: MMGT12; assay: inhibition of LPS-induced nitrite accumulation in mouse MMGT12 cells at 1e-6 M concentration; Slight inhibition

Q: Which results are given for `Cc1c(C)c2c(c(C)c1O)CCC(C)(CCCCCCCCCCCCCCO)O2` (stereo unspecified)?
A: Activity [1]: Major inhibition; Activity [2]: Major inhibition; Activity [3]: Major inhibition

Q: With `Cc1c(C)c2c(c(C)c1O)CCC(C)(CCC[C@H](C)CCCC(C)CCCC(C)C)O2` (single isomer, unassigned) as the compound, how does the Activity [4] read?
A: Its Activity is “inactive”.

Q: `Cc1c(C)c2c(c(C)c1O)CCC(C)(CCCCCCCCCCO)O2` (stereo unspecified) was tested. Which Activity [4] did it give?
A: The Activity was “inactive”.

Q: How did the Activity [1] turn out when `Cc1c(C)c2c(c(C)c1O)CCC(C)(CCCCCCCCCCCCO)O2` (stereo unspecified) was run?
A: Its Activity is “Major inhibition”.

Q: And the Activity [2]?
A: Its Activity is “Major inhibition”.

Q: And the Activity [3]?
A: The Activity was “Major inhibition”.

Q: Which results are given for `Cc1c(C)c2c(c(C)c1O)CCC(C)(CCCCCCCCCCCCCCCCO)O2` (stereo unspecified)?
A: Activity [5]: Slight inhibition; Activity [6]: Slight inhibition; Activity [3]: Slight inhibition
